Results from US20250221948A1, “Complex of 3-hydroxybutyric acid and sodium 3-hydroxybutyrate and preparation method thereof” (priority 2022, published 2025).
Like-named read-outs stand apart in the source and are kept apart here.

Legend:
Assay type in all cases: physicochemical
[1] = Determination of moisture contents with KF moisture meter at different time points (hygroscopicity); details: for moisture content of the complex compared with the acid, the sodium salt and their mixture: summary of Tables 2A-2C; for moisture content (%): temperature 23° C., humidity 92.5%; for hygroscopicity of the solid acid: easy to deliquesce
Source text: For R-3-hydroxybutyric acid, sodium R-3-hydroxybutyrate, Mixture of R-3-hydroxybutyric acid and sodium R-3-hydroxybutyrate, as well as R-3-hydroxybutyric acid·sodium R-3-hydroxybutyrate complex of Examples 1-6, under a certain condition, KF moisture meter was used to determine the moisture contents at different time points.
(§1) For 3-hydroxybutyric acid, sodium 3-hydroxybutyrate, mixture of 3-hydroxybutyric acid and sodium 3-hydroxybutyrate, as well as 3-hydroxybutyric acid·sodium 3-hydroxybutyrate complex of Examples 7-9, under a certain condition, KF moisture meter was used to determine the moisture contents at different time points.
as §1, with “S-3-hydroxybutyric” for “3-hydroxybutyric”, “S-3-hydroxybutyrate,” for “3-hydroxybutyrate,”, “S-3-hydroxybutyrate” for “3-hydroxybutyrate”, “10-12,” for “7-9,”

[2] = Stability of the solids at different temperatures
Protocol: For R-3-hydroxybutyric acid, sodium R-3-hydroxybutyrate, mixture of R-3-hydroxybutyric acid and sodium R-3-hydroxybutyrate, as well as R-3-hydroxybutyric acid·sodium R-3-hydroxybutyrate complex of Examples 1-6, the stability was measured at 60° C., 70° C. and 80° C., and the experimental results are shown in Table 3A.
For 3-hydroxybutyric acid, sodium 3-hydroxybutyrate, mixture of 3-hydroxybutyric acid and sodium 3-hydroxybutyrate, as well as 3-hydroxybutyric acid·sodium 3-hydroxybutyrate complex of Examples 7-9, the stability was measured at 60° C., 70° C. and 80° C., and the experimental results are shown in Table 3B.
For S-3-hydroxybutyric acid, sodium S-3-hydroxybutyrate, mixture of S-3-hydroxybutyric acid and sodium S-3-hydroxybutyrate, as well as S-3-hydroxybutyric acid·sodium S-3-hydroxybutyrate complex of Examples 10-12, the stability was measured at 60° C., 70° C. and 80° C., and the experimental results are shown in Table 3C.

[3] = Stability of the solids at different temperatures; remark: listed apart in the source

SMILES | hygroscopicity of the complex compared with the acid, the sodium salt and their mixture [1] | moisture content of the complex compared with the acid, the sodium salt and their mixture [1] | moisture content (%) ([1]; 30 min) | moisture content (%) ([1]; 1 h) | moisture content (%) ([1]; 2 h) | moisture content (%) ([1]; 4 h) | moisture content (%) ([1]; 6 h) | moisture content (%) ([1]; 7 h) | moisture content (%) ([1]; 11 h) | moisture content (%) ([1]; 22 h) | Stability [2] | stability of the complex [2] | hygroscopicity of the solid acid [1] | Stability ([3]; 30° C.) | Stability ([3]; 40° C.) | Stability ([3]; 50° C.) | Stability ([2]; 60° C.) | Stability ([2]; 70° C.) | Stability ([2]; 80° C.)
C[C@H](O)CC(=O)O [S-3-hydroxybutyric acid·sodium S-3-hydroxybutyrate] | obviously superior | significantly lower | 0.71% | 1.38% | 1.85% | 3.28% | 4.79% | 5.32% | 8.43% | 16.93% | unchanged | very high | – | – | – | – | – | – | –
C[C@@H](O)CC(=O)O [R-3-hydroxybutyric acid] | – | – | 1.13% | 2.25% | 3.96% | 6.46% | 9.52% | 10.56% | 17.22% | 33.34% | – | – | strong hygroscopicity | – | – | – | – | – | –
CC(O)CC(=O)O (stereo not shown) [3-hydroxybutyric acid • sodium 3-hydroxybutyrate complex] [3-hydroxybutyric acid·sodium 3-hydroxybutyrate] | obviously superior | significantly lower | 0.61% | 1.18% | 2.05% | 3.38% | 4.99% | 5.52% | 8.73% | 17.63% | unchanged | very high | – | – | – | – | – | – | –
C[C@H](O)CC(=O)[O-].[Na+] [Sodium S-3-hydroxybutyrate, sodium S-3-hydroxybutyrate] | – | – | 1.09% | 2.07% | 3.49% | 5.32% | 7.46% | 8.15% | 12.73% | 24.53% | – | – | – | unchanged | unchanged | unchanged | unchanged | unchanged | unchanged
C[C@H](O)CC(=O)O [S-3-hydroxybutyric acid] | – | – | 1.23% | 2.28% | 4.05% | 6.32% | 9.53% | 10.62% | 17.08% | 32.95% | – | – | strong hygroscopicity | unchanged | – | melted | melted | melted | melted
C[C@@H](O)CC(=O)[O-].[Na+] [Sodium R-3-hydroxybutyrate, sodium R-3-hydroxybutyrate] | – | – | 1.04% | 2.01% | 3.39% | 5.23% | 7.35% | 8.04% | 12.68% | 24.68% | unchanged | – | – | – | – | – | – | – | –
CC(O)CC(=O)[O-].[Na+] (stereo not shown) [Sodium 3-hydroxybutyrate, sodium 3-hydroxybutyrate] | – | – | 1.15% | 2.19% | 3.62% | 5.35% | 7.54% | 8.35% | 12.86% | 24.95% | unchanged | – | – | – | – | – | – | – | –
C[C@@H](O)CC(=O)O [R-3-hydroxybutyric acid • sodium R-3-hydroxybutyrate complex] [R-3-hydroxybutyric acid·sodium R-3-hydroxybutyrate] | obviously superior | significantly lower | 0.54% | 1.02% | 1.96% | 3.26% | 4.89% | 5.39% | 8.65% | 17.45% | unchanged | very high | – | – | – | – | – | – | –
CC(O)CC(=O)O (stereo not shown) [3-hydroxybutyric acid] | – | – | 1.32% | 2.37% | 4.15% | 6.59% | 9.68% | 10.71% | 17.33% | 33.51% | – | – | strong hygroscopicity | – | – | – | – | – | –
